In patent US12697326B2, “Methods of treating hepatic encephalopathy” (SALIX PHARMACEUTICALS, INC., priority 2008, dated 2026):

Legend:
[1] = test system: blood ammonia concentration in subjects with HE; assay: Blood (venous) ammonia concentration, change from baseline, first study; assay type: in vivo, human; details: ITT, change from baseline to end of treatment
Method: Venous blood samples (10 mL) were collected and ammonia concentrations were obtained by methods known in the art.
(§1) Mean values and mean changes from baseline in blood ammonia concentration and critical flicker frequency values were collected. Analyses of blood ammonia concentrations and critical flicker frequency values were based upon quantitative values (not qualitative grades). Treatment differences for mean change from baseline in these parameters was estimated using a mixed effects model with fixed effects for time and baseline value.
Table 22 summarizes changes from baseline to end of treatment in venous ammonia level by treatment group in the first study.

[2] = test system: asterixis grade in subjects with HE; assay: Time to any increase from baseline in asterixis grade, first study; assay type: in vivo, human; details: for Probability of no increase in asterixis grade: Kaplan-Meier estimate, ITT; for Probability of no increase in asterixis grade / Cummulative number of events (increase in asterixis grade) / Number of events (increase in asterixis grade): Rifaximin N = 140; for Cummulative number of events (increase in asterixis grade) / Number of events (increase in asterixis grade): ITT population
Method: (§2) Asterixis (flapping tremor) was determined with the subject holding both arms and forearms extended with wrists dorsiflexed and fingers open for ≥30 seconds. Asterixis was measured on a continuum of 5 grades, e.g., grades 0 and 4=no abnormal movement vs. almost continuous flapping motions, respectively as shown below: • Grade 0=No tremors; • Grade 1=Rare flapping motions; • Grade 2=Occasional, irregular flaps; • Grade 3=Frequent flaps; and • Grade 4=Almost continuous flapping motions.
Efficacy in regard to asterixis grade was measured as time to any increase from baseline in asterixis grade.
FIG. 12 illustrates time to any increase from baseline in asterixis grade by treatment group in the ITT population in the first study. Table 21 presents estimates of the proportions of subjects who had any increase in asterixis grade over the course of the Treatment Period and results of statistical analyses. Subjects who discontinued prior to experiencing an increase in asterixis grade and prior to completion of the 6-month treatment period were censored at the time of discontinuation.

[3] = test system: asterixis grade in subjects with HE; assay: Level of change from baseline in asterixis grade by treatment group, first study; assay type: in vivo, human; details: 550 mg BID, Baseline to EOT
Method: as §2

patients with HE = details: 6-month study; rifaximin 1200 mg/day, neomycin 3 g/day; 14 days on, 14 days off per month; cited from earlier work
[4] = test system: critical flicker frequency in subjects with HE; assay: Critical flicker frequency (CFF) test, change from baseline, first study; assay type: in vivo, human
Method: The critical flicker frequency (CFF) was assessed for each subject using a specialized CFF instrument. The CFF is the frequency at which the subject observes a constant light transition to a flickering light and is measured in Hertz (Hz). CFF is an objective assessment of mental status.
The CFF was measured on a continuous scale and was the mean of 8 separate fusion-to-flicker transition tests performed in rapid succession.
as §1
A critical flicker frequency (CFF) assessment, a recognized quantitative measure of CNS dysfunction, was an efficacy endpoint in the first study. CFF tests utilize the correlation between cerebral processing of oscillatory visual stimuli and CNS impairment due to increased HE severity.^10,11,12,13 This test identifies a frequency at which a flickering light is perceived as steady. A decline in this frequency has been associated with increasing severity of HE. Likewise, elevation in blood ammonia, another endpoint in the first study, is a quantitative assessment associated with the CNS effects underlying overt HE.

subjects with HE = assay: Treatment-emergent adverse events, second study; assay type: in vivo, human
Text: At the time of this interim analysis, TEAEs were reported in 230 subjects (86.5%). The most common TEAEs (e.g., in ≥10% of total subjects) experienced by subjects were the following: peripheral edema (15.8%); urinary tract infection and nausea (12.8% each); and abdominal pain and ascites (10.5% each).
Treatment-emergent SAEs were experienced by 47.4% of subjects.

[5] = test system: Epworth Sleepiness Scale in subjects with HE; assay: Epworth Sleepiness Scale total score; assay type: in vivo, human; details: 550 mg BID
Text: Total scores for the Epworth Sleepiness Scale were computed and summarized at baseline and Days 28, 56, 84, 112, 140 and 168 using descriptive statistics. Treatment differences for mean change in total scores from baseline to Days 28, 56, 84, 112, 140 and 168 were summarized and compared between treatments.

[6] = Treatment interval 0 to <28 days
[7] = Treatment interval 28 to <56 days
[8] = Treatment interval 56 to <84 days
[9] = Treatment interval 84 to <140 days
[10] = Treatment interval 140 to <168 days
[11] = any increase from baseline in asterixis grade, 550 mg BID, N = 140, Days >=168
[12] = any increase from baseline in asterixis grade; 550 mg BID; N = 140; Days [0-28)
[13] = any increase from baseline in asterixis grade; 550 mg BID; N = 140; Days [28-56)
[14] = any increase from baseline in asterixis grade; 550 mg BID; N = 140; Days [56-84)
[15] = any increase from baseline in asterixis grade; 550 mg BID; N = 140; Days [84-140)
[16] = any increase from baseline in asterixis grade; 550 mg BID; N = 140; Days [140-168)
[17] = 550 mg BID, Baseline to Day 140

CO[C@H]1/C=C/O[C@@]2(C)Oc3c(C)c(O)c4c(O)c(c5c(nc6cc(C)ccn65)c4c3C2=O)NC(=O)/C(C)=C\C=C\[C@H](C)[C@H](O)[C@@H](C)[C@@H](O)[C@@H](C)[C@H](OC(C)=O)[C@@H]1C [Rifaximin]
Mean (SD) change in ammonia level [1]: −5.7 (46.77) μg/dL
Probability of no increase in asterixis grade [2, 6]: 1.0000
Cummulative number of events (increase in asterixis grade) [2, 6]: 13
Probability of no increase in asterixis grade [2, 7]: 0.9048
Cummulative number of events (increase in asterixis grade) [2, 7]: 20
Number of events (increase in asterixis grade) [2, 7]: 7
Probability of no increase in asterixis grade [2, 8]: 0.8499
Cummulative number of events (increase in asterixis grade) [2, 8]: 27
Number of events (increase in asterixis grade) [2, 8]: 7
Probability of no increase in asterixis grade [2, 9]: 0.7910
Cummulative number of events (increase in asterixis grade) [2, 9]: 30
Number of events (increase in asterixis grade) [2, 9]: 3
Probability of no increase in asterixis grade [2, 10]: 0.7637
Cummulative number of events (increase in asterixis grade) [2, 10]: 31
Number of events (increase in asterixis grade) [2, 10]: 1
Probability of no increase in asterixis grade ([2]; Treatment interval ≥168 days): 0.7534
Cummulative number of events (increase in asterixis grade) ([2]; Treatment interval ≥168 days): 32
Number of events (increase in asterixis grade) ([2]; Treatment interval ≥168 days): 1
Cumulative Occurrences of Events [2, 11]: 32
Occurrences of Events [2, 11]: 1
Cumulative Occurrences of Events [2, 12]: 13
Occurrences of Events [2, 12]: 13
Cumulative Occurrences of Events [2, 13]: 20
Occurrences of Events [2, 13]: 7
Cumulative Occurrences of Events [2, 14]: 27
Occurrences of Events [2, 14]: 7
Cumulative Occurrences of Events [2, 15]: 30
Occurrences of Events [2, 15]: 3
Cumulative Occurrences of Events [2, 16]: 31
Occurrences of Events [2, 16]: 1
subjects with increases in asterixis grade (of 140) ([2]; first study, rifaximin group): 32
time to first increase in Asterixis grade vs placebo (FIG. 5, Kaplan Meier) ([2]; in vivo): increased time to the first increase in Asterixis grade
Change from baseline in asterixis grade, Max [3]: 2
Change from baseline in asterixis grade, Mean [3]: 0.0
Change from baseline in asterixis grade, Median [3]: 0.0
Change from baseline in asterixis grade, Min [3]: −2
Number of subjects with change from baseline in asterixis grade of 0 ([3]; n = 139): 108
Number of subjects with change from baseline in asterixis grade of 1 ([3]; n = 139): 10
Number of subjects with change from baseline in asterixis grade of 2 ([3]; n = 139): 2
Number of subjects with change from baseline in asterixis grade of 3 ([3]; n = 139): 0
Number of subjects with change from baseline in asterixis grade of 4 ([3]; n = 139): 0
Number of subjects with change from baseline in asterixis grade of −1 ([3]; n = 139): 18
Number of subjects with change from baseline in asterixis grade of −2 ([3]; n = 139): 1
Percent of subjects with change from baseline in asterixis grade of 0 ([3]; n = 139): 77.7%
Percent of subjects with change from baseline in asterixis grade of 1 ([3]; n = 139): 7.2%
Percent of subjects with change from baseline in asterixis grade of 2 ([3]; n = 139): 1.4%
Percent of subjects with change from baseline in asterixis grade of −1 ([3]; n = 139): 12.9%
Percent of subjects with change from baseline in asterixis grade of −2 ([3]; n = 139): 0.7%
efficacy in patients with HE, rifaximin versus neomycin (patients with HE): comparable efficacy
Change from Baseline in Critical Flicker Frequency Test, Max [4, 17]: 12 Hz
Change from Baseline in Critical Flicker Frequency Test, Mean [4, 17]: 1.4 Hz
Change from Baseline in Critical Flicker Frequency Test, Median [4, 17]: 1.5 Hz
Change from Baseline in Critical Flicker Frequency Test, Min [4, 17]: −15 Hz
Change from Baseline in Critical Flicker Frequency Test, Max ([4]; 550 mg BID, Baseline to EOT): 11 Hz
Change from Baseline in Critical Flicker Frequency Test, Mean ([4]; 550 mg BID, Baseline to EOT): 0.9 Hz
Change from Baseline in Critical Flicker Frequency Test, Median ([4]; 550 mg BID, Baseline to EOT): 0.1 Hz
Change from Baseline in Critical Flicker Frequency Test, Min ([4]; 550 mg BID, Baseline to EOT): −14 Hz
Critical Flicker Frequency Test, Max ([4]; 550 mg BID, Day 140): 49 Hz
Critical Flicker Frequency Test, Min ([4]; 550 mg BID, Day 140): 27 Hz
Critical Flicker Frequency Test, Max ([4]; 550 mg BID, EOT): 49 Hz
Critical Flicker Frequency Test, Median ([4]; 550 mg BID, EOT): 37.8 Hz
Critical Flicker Frequency Test, Min ([4]; 550 mg BID, EOT): 25 Hz
Mean changes (±SD) in CFF results ([4]; first study, rifaximin group, baseline to end of treatment): 0.945 (±4.75)
subjects experiencing at least 1 TEAE judged to be severe (subjects with HE): 40.2%
subjects with treatment-emergent SAEs (subjects with HE): 47.4%
subjects with HE counted for the safety analyses (subjects with HE; 57 subjects): 21.4%
incidence of TEAEs considered related to study drug (subjects with HE; continuing rifaximin group): 7.1%
TEAE abdominal pain, subjects (subjects with HE; interim analysis): 10.5%
TEAE ascites, subjects (subjects with HE; interim analysis): 10.5%
TEAE nausea, subjects (subjects with HE; interim analysis): 12.8%
TEAE peripheral edema, subjects (subjects with HE; interim analysis): 15.8%
TEAE urinary tract infection, subjects (subjects with HE; interim analysis): 12.8%
subjects with TEAEs (subjects with HE; interim analysis, 230 subjects): 86.5%
incidence of TEAEs considered related to study drug (subjects with HE; new rifaximin group): 7.7%
Change from Baseline for Epworth Sleepiness Total Score, Max ([5]; Baseline to Day 28): 7
Change from Baseline for Epworth Sleepiness Total Score, Mean ([5]; Baseline to Day 28): −0.2
Change from Baseline for Epworth Sleepiness Total Score, Median ([5]; Baseline to Day 28): 0.0
Change from Baseline for Epworth Sleepiness Total Score, Min ([5]; Baseline to Day 28): −14
Epworth Sleepiness Total Score, Max ([5]; Day 28): 23
Epworth Sleepiness Total Score, Mean ([5]; Day 28): 10.0
Epworth Sleepiness Total Score, Median ([5]; Day 28): 9.0
Epworth Sleepiness Total Score, Min ([5]; Day 28): 0
